Measured values as given in the supplement of paper PMC12463676, “Small-molecule dissolution of stress granules by redox modulation benefits ALS models” (Nature Chemical Biology, 2025).

compound: NC(=O)CCCCC1CCSS1 [lipoamide]; assay: thermal stability z-score vs DMSO; higher = more thermally stabilized by treatment; conditions: HeLa; lipoamide concentration 100 µM; arsenate co-treatment: 1 mM arsenate 1 h
Procedure: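 Cellular thermal proteome profiling in HeLa cells. Cells were treated with 100 µM lipoamide for 1 h, with or without 1 mM arsenate for a further 1 h, then heated to ten temperatures (37-66.3 °C), and soluble protein was quantified by TMT mass spectrometry relative to 0.1% DMSO controls. The thermal stability score (sum of log2 fold changes minus the abundance score) was transformed to a z-score; mean of n = 3 experiments.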
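Further: each temperature applied for 3 min, abundance score taken as mean log2 fold change at the two lowest temperatures, z-score obtained by mean subtraction and division by SD.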

Chain of UniProt Q8IZH2 (Q8IZH2 whole entry): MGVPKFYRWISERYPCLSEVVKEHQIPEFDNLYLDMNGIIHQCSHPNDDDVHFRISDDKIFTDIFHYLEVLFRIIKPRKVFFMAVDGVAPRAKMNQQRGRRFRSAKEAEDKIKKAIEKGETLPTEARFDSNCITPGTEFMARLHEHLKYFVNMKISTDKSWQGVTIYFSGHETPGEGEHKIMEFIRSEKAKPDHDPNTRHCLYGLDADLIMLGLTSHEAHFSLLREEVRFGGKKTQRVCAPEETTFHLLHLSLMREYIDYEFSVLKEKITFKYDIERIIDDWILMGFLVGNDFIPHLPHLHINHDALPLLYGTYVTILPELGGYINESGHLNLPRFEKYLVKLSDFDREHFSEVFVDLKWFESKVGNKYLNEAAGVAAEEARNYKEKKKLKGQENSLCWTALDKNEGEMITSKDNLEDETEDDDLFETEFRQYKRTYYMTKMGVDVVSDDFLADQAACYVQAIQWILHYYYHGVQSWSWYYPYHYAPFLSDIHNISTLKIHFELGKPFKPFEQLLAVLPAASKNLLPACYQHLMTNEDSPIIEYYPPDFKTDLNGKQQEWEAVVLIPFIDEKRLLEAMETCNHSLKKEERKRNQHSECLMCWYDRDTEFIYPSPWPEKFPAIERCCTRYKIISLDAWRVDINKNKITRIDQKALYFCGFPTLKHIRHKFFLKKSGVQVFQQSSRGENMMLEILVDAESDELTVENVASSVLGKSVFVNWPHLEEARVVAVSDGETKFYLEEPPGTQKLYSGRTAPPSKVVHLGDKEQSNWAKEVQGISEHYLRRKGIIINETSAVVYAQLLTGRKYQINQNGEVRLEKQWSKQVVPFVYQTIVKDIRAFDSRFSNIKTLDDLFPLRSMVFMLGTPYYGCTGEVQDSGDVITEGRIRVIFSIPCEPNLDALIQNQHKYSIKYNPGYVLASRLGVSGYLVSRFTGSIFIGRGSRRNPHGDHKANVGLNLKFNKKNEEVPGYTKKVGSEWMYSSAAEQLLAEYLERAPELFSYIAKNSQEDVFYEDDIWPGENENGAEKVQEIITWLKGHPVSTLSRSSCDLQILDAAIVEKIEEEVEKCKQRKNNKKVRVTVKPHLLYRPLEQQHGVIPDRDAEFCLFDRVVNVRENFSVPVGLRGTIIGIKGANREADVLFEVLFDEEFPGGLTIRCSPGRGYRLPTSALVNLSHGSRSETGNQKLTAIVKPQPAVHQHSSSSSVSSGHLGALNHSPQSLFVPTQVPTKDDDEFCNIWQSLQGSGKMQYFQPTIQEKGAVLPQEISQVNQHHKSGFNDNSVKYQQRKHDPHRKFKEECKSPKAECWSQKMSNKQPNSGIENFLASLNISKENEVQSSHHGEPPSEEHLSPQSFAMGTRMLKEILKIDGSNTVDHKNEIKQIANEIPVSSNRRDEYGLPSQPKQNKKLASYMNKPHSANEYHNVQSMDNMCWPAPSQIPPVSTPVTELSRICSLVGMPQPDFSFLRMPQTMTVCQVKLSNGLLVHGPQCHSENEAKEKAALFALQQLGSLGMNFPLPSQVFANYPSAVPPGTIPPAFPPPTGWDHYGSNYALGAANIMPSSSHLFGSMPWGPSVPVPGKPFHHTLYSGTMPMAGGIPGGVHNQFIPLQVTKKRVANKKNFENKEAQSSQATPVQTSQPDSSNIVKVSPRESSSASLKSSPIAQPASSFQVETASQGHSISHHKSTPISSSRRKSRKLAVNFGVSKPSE
Chain of UniProt Q8WXX5 (Q8WXX5 whole entry): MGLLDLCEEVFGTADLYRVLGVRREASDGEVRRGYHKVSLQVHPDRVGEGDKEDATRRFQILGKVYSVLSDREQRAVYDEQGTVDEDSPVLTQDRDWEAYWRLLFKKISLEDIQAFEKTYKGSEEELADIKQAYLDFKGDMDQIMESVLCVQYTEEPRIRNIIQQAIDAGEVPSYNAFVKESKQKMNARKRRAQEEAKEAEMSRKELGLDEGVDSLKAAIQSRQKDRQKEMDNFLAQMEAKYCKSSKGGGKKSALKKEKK
Chain of UniProt Q8NBX0 (Q8NBX0 whole entry): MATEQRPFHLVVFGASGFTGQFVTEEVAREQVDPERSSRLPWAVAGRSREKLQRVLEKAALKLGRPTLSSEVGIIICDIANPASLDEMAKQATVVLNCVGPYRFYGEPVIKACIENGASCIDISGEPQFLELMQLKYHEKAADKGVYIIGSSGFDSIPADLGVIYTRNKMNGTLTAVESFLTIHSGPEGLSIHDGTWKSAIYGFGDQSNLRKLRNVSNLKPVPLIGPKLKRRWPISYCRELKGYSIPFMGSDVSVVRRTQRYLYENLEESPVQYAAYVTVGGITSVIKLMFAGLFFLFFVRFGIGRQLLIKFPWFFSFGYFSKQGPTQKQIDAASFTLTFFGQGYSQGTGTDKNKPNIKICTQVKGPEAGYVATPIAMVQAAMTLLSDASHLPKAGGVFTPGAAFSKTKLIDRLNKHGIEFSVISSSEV
Chain of UniProt Q15942 (Q15942 whole entry): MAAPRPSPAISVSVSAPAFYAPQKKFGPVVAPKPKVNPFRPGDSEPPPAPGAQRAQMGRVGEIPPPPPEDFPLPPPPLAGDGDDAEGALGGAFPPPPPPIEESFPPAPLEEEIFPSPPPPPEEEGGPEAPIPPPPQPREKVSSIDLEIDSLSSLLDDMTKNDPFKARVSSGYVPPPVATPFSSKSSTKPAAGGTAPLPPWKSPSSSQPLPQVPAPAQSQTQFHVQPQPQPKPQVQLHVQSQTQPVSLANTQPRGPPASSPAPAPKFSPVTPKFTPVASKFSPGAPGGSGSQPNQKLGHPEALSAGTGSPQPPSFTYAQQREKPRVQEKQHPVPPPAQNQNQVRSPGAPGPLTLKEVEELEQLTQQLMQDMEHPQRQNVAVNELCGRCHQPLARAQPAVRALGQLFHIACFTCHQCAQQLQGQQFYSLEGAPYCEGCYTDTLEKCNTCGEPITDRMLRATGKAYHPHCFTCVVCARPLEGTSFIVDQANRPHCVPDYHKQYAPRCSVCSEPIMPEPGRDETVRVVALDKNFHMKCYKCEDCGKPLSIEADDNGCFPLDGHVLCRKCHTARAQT
Chain of UniProt Q86VP6 (Q86VP6 whole entry): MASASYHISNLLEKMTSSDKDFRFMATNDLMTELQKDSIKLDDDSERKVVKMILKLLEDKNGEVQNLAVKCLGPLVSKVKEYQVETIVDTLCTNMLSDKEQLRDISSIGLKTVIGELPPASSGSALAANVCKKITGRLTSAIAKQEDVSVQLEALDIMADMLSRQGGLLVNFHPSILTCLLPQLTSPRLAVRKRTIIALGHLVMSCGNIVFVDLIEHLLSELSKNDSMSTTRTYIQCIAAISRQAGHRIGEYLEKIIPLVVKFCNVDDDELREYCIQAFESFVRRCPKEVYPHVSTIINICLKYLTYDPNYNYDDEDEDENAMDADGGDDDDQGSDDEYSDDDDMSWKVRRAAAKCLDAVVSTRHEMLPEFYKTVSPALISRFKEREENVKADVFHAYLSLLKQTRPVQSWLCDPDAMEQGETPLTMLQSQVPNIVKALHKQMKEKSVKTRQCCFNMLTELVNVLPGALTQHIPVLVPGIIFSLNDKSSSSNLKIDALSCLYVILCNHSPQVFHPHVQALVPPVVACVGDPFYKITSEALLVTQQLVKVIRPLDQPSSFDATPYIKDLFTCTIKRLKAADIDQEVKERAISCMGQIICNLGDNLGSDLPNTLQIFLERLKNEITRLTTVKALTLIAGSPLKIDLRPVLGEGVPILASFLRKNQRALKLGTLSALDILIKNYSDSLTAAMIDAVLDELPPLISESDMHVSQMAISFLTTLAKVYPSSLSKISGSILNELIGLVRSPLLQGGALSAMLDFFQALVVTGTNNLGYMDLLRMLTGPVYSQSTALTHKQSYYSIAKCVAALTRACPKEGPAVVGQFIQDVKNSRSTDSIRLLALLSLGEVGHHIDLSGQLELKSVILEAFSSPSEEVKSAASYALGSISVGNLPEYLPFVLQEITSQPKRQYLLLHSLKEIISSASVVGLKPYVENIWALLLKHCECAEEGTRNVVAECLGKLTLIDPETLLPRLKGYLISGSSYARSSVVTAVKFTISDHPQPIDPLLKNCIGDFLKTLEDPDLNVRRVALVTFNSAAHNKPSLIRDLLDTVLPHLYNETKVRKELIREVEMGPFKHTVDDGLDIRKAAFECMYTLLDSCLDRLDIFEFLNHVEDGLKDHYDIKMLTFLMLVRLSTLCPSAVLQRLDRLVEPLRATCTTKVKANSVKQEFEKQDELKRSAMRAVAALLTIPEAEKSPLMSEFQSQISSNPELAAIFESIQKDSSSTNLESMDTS
Chain of UniProt P98170 (P98170 whole entry): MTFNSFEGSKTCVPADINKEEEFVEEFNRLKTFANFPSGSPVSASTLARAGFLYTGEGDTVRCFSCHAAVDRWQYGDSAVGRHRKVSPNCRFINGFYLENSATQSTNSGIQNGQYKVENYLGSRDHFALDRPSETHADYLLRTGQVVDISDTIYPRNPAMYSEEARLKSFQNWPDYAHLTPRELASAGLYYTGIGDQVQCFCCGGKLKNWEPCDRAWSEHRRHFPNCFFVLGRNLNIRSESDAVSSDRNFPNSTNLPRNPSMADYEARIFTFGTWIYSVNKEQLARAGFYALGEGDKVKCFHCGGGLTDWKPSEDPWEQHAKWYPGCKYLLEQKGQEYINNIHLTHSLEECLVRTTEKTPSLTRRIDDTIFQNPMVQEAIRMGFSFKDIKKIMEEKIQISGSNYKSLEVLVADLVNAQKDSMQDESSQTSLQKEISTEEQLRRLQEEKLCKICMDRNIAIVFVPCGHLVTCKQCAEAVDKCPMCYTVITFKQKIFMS
Chain of UniProt Q8TBZ6 (Q8TBZ6 whole entry): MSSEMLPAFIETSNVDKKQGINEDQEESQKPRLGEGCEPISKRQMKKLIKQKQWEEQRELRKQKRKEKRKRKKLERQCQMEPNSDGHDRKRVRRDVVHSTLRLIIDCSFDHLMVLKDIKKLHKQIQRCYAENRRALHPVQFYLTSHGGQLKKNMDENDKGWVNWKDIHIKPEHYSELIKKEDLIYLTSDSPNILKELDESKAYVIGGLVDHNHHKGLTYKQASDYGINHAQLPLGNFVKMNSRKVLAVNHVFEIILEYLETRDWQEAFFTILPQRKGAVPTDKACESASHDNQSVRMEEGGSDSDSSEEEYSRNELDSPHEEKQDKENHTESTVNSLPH

Target	thermal stability z-score
VPS13C (UniProt Q709C8)	0.038
NUB1 (UniProt Q9Y5A7)	-0.391
MRPL9 (UniProt Q9BYD2)	-0.106
CRELD2 (UniProt Q6UXH1)	-6.65
GHDC (UniProt Q8N2G8)	-0.848
NUSAP1 (UniProt Q9BXS6)	0.43
SMCHD1 (UniProt A6NHR9)	-0.13
STK10 (UniProt O94804)	-0.201
XIAP (UniProt P98170)	-0.12
UTP14A (UniProt Q9BVJ6)	1.62
FBXL17 (UniProt Q9UF56)	0.0273
ZYX (UniProt Q15942)	0.568
TRIP6 (UniProt Q15654)	-1.35
XRN1 (UniProt Q8IZH2)	-0.0709
ARL14EP (UniProt Q8N8R7)	-0.0926
EMC10 (UniProt Q5UCC4)	-0.0818
DAAM1 (UniProt Q9Y4D1)	-0.0152
SLC38A2 (UniProt Q96QD8)	0.351
TRMT10A (UniProt Q8TBZ6)	-0.927
DARS2 (UniProt Q6PI48)	-0.726
SCCPDH (UniProt Q8NBX0)	0.163
DDX24 (UniProt Q9GZR7)	1.1
HNRNPH3 (UniProt P31942)	-0.175
DDX11 (UniProt Q96FC9)	-0.753

Target	thermal stability z-score
C18ORF25 (UniProt Q96B23)	-0.688
FAAP100 (UniProt Q0VG06)	0.0838
CAND1 (UniProt Q86VP6)	0.463
DNAJC9 (UniProt Q8WXX5)	0.604
TOM1L1 (UniProt O75674)	-1
SPATA5 (UniProt Q8NB90)	0.389
COX7A2L (UniProt O14548)	0.761
NDUFA7 (UniProt O95182)	0.276
MEPCE (UniProt Q7L2J0)	-0.372
RANBP1 (UniProt P43487)	-0.127
PTK2 (UniProt Q05397)	0.189
GPATCH4 (UniProt Q5T3I0)	1.04
LLGL1 (UniProt Q15334)	-0.455
MICALL1 (UniProt Q8N3F8)	-0.217
CHTF18 (UniProt Q8WVB6)	-0.117
UBE3A (UniProt Q05086)	0.245
AKR1A1 (UniProt P14550)	0.441
ZC3H7B (UniProt Q9UGR2)	-0.082
AKAP10 (UniProt O43572)	-0.128
MBNL1 (UniProt Q9NR56)	-0.368
COPS4 (UniProt Q9BT78)	0.298
KLHL11 (UniProt Q9NVR0)	0.651
ZNF593 (UniProt O00488)	4.3
PIEZO1 (UniProt Q92508)	-0.342

Target	thermal stability z-score
GPAA1 (UniProt O43292)	-1.09
ARL6IP4 (UniProt Q66PJ3)	0.727
TRAF3IP1 (UniProt Q8TDR0)	0.519
PLIN4 (UniProt Q96Q06)	0.188
C20ORF27 (UniProt Q9GZN8)	0.247
RCCD1 (UniProt A6NED2)	0.452
SULT1A4|SULT1A3	-0.787
CDKN2AIP (UniProt Q9NXV6)	0.446
B4GALT5 (UniProt O43286)	-0.000852
CHD4 (UniProt Q14839)	0.305
HSPD1 (UniProt P10809)	-0.0897
CSNK2A2 (UniProt P19784)	0.339
SSBP4 (UniProt Q9BWG4)	1.24
SMS (UniProt P52788)	0.652
ZNF598 (UniProt Q86UK7)	0.0109
MDH2 (UniProt P40926)	0.922
SNX9 (UniProt Q9Y5X1)	-0.0697
C3ORF58 (UniProt Q8NDZ4)	-0.093
REXO4 (UniProt Q9GZR2)	-0.103
VPS53 (UniProt Q5VIR6)	0.332
ATP5J2 (UniProt P56134)	0.46
TSC22D2 (UniProt O75157)	1.54
GTPBP8 (UniProt Q8N3Z3)	0.145

same assay, conditions: HeLa; lipoamide concentration 100 µM; arsenate co-treatment: none

Target	thermal stability z-score
VPS13C (UniProt Q709C8)	-0.033
NUB1 (UniProt Q9Y5A7)	0.421
MRPL9 (UniProt Q9BYD2)	0.203
CRELD2 (UniProt Q6UXH1)	-6.33
GHDC (UniProt Q8N2G8)	0.229
NUSAP1 (UniProt Q9BXS6)	0.187
SMCHD1 (UniProt A6NHR9)	-0.0876
STK10 (UniProt O94804)	-0.0461
XIAP (UniProt P98170)	-0.0464
UTP14A (UniProt Q9BVJ6)	0.823
FBXL17 (UniProt Q9UF56)	-0.0196
ZYX (UniProt Q15942)	0.672
TRIP6 (UniProt Q15654)	-0.966
XRN1 (UniProt Q8IZH2)	-0.0695
ARL14EP (UniProt Q8N8R7)	-0.15
EMC10 (UniProt Q5UCC4)	-0.577
DAAM1 (UniProt Q9Y4D1)	-0.226
SLC38A2 (UniProt Q96QD8)	0.272

Target	thermal stability z-score
TRMT10A (UniProt Q8TBZ6)	-0.427
DARS2 (UniProt Q6PI48)	-0.586
SCCPDH (UniProt Q8NBX0)	0.0672
DDX24 (UniProt Q9GZR7)	0.327
HNRNPH3 (UniProt P31942)	0.0351
DDX11 (UniProt Q96FC9)	-0.517
C18ORF25 (UniProt Q96B23)	-0.189
FAAP100 (UniProt Q0VG06)	-0.0268
CAND1 (UniProt Q86VP6)	0.225
DNAJC9 (UniProt Q8WXX5)	0.566
TOM1L1 (UniProt O75674)	-0.807
SPATA5 (UniProt Q8NB90)	0.148
COX7A2L (UniProt O14548)	0.522
NDUFA7 (UniProt O95182)	0.141
MEPCE (UniProt Q7L2J0)	0.65
RANBP1 (UniProt P43487)	0.319
PTK2 (UniProt Q05397)	0.122
